Source: patent US9771334B2, “Triketone compound and preparation method and use thereof” (SHANDONG CYNDA CHEMICAL CO., LTD., priority 2013, dated 2017)

Legend:
Assay in all cases: Herbicidal activity, pot culture method (primary and secondary screening test)
Assay type in all cases: in vivo
Conditions in all cases: primary screening, pot culture, 150 g/ha, sprayed at 3-leaf stage, result 15 days later
[1] = tested on: eclipta prostrata
Method in brief: (§1)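 Post-emergence pot test: 3-leaf-stage weeds, tower spray of 0.2 g/L solution (DMF stock, water dilution) at 150 g/ha, greenhouse, inhibition (%) scored at 15 days. Secondary screen at a reduced dose.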

[2] = tested on: digitaria sanguinalis
Method in brief: as §1

[3] = tested on: echinochloa crusgalli
Method in brief: as §1

[4] = tested on: abutilon theophrasti
Method in brief: as §1

[5] = tested on: amaranthus retroflexus
Method in brief: as §1

[6] = tested on: setaria viridis
Method in brief: as §1

Structure (SMILES) | herbicidal activity inhibition ratio (%), Eclipta prostrata [1] [%] | herbicidal activity inhibition ratio (%), Digitaria sanguinalis [2] [%] | herbicidal activity inhibition ratio (%), Echinochloa crusgalli [3] [%] | herbicidal activity inhibition ratio (%), Abutilon theophrasti [4] [%] | herbicidal activity inhibition ratio (%), Amaranthus retroflexus [5] [%] | herbicidal activity inhibition ratio (%), Setaria viridis [6] [%]
Cn1c(=O)n(-c2cccc(C(F)(F)F)c2)c(=O)c2cc(C(=O)C3=C(O)CC(C)(C)CC3=O)ccc21 [Compound 51] | 80 | 83 | 50 | 93 | 90 | 40
Cn1c(=O)n(-c2cccc(C(F)(F)F)c2)c(=O)c2cc(C(=O)C3=C(O)CCCC3=O)ccc21 [Compound 52] | 75 | 50 | 85 | 55 | 98 | 80
Cn1c(=O)n(-c2ccc([N+](=O)[O-])cc2)c(=O)c2cc(C(=O)C3=C(O)CC(C)(C)CC3=O)ccc21 [Compound 53] | 80 | 25 | 0 | 100 | 80 | 80
Cc1cccc(C)c1-n1c(=O)c2cc(C(=O)C3=C(O)C(C)(C)CCC3=O)ccc2n(C)c1=O [Compound 54] | 80 | 60 | 95 | 100 | 98 | 45
COc1cccc(-n2c(=O)c3cc(C(=O)C4=C(O)CCCC4=O)ccc3n(C)c2=O)c1 [Compound 55] | 68 | 60 | 93 | 100 | 95 | 25
COc1cccc(-n2c(=O)c3cc(C(=O)C4=C(O)CC(C)(C)CC4=O)ccc3n(C)c2=O)c1 [Compound 56] | 75 | 55 | 60 | 55 | 80 | 60
COc1ccc(-n2c(=O)c3cc(C(=O)C4=C(O)CCCC4=O)ccc3n(C)c2=O)cc1 [Compound 57] | 80 | 75 | 85 | 60 | 95 | 50
COc1ccc(-n2c(=O)c3cc(C(=O)C4=C(O)CC(C)(C)CC4=O)ccc3n(C)c2=O)cc1 [Compound 58] | 68 | 88 | 80 | 100 | 90 | 60
Cc1ccccc1-n1c(=O)[nH]c2ccc(C(=O)C3=C(O)CC(C)(C)CC3=O)cc2c1=O [Compound 59] | 25 | 0 | 0 | 0 | 30 | 10
Cn1c(=O)n(-c2cc(C(F)(F)F)ccc2Cl)c(=O)c2cc(C(=O)C3=C(O)CCCC3=O)ccc21 [Compound 60] | 0 | 40 | 65 | 100 | 70 | 80
Cn1c(=O)n(-c2cc(C(F)(F)F)ccc2Cl)c(=O)c2cc(C(=O)C3=C(O)CC(C)(C)CC3=O)ccc21 [Compound 61] | 20 | 25 | 0 | 65 | 0 | 10
Cn1c(=O)n(-c2ccc(Cl)cc2Cl)c(=O)c2cc(C(=O)C3=C(O)CCCC3=O)ccc21 [Compound 62] | 20 | 65 | 83 | 100 | 88 | 93
Cn1c(=O)n(-c2ccc(Cl)cc2Cl)c(=O)c2cc(C(=O)C3=C(O)CC(C)(C)CC3=O)ccc21 [Compound 63] | 50 | 20 | 25 | 100 | 30 | 30
CC1CC(=O)C(C(=O)c2ccc3c(c2)c(=O)n(-c2ccc(Cl)cc2Cl)c(=O)n3C)=C(O)C1 (stereo not drawn) [Compound 64] | 0 | 60 | 90 | 95 | 80 | 93
Cc1cc(C)c(-n2c(=O)c3cc(C(=O)C4=C(O)CCCC4=O)ccc3n(C)c2=O)c(C)c1 [Compound 67] | 0 | 80 | 83 | 95 | 80 | 80
Cc1ccccc1-n1c(=O)[nH]c2ccc(C(=O)C3=C(O)CCCC3=O)cc2c1=O [Compound 68] | 0 | 0 | 0 | 15 | 0 | 10
CCn1c(=O)n(-c2ccccc2C)c(=O)c2cc(C(=O)C3=C(O)CC(C)(C)CC3=O)ccc21 [Compound 69] | 88 | 30 | 90 | 100 | 95 | 85
CCCn1c(=O)n(-c2ccccc2C)c(=O)c2cc(C(=O)C3=C(O)CCCC3=O)ccc21 [Compound 71] | 98 | 25 | 80 | 95 | 85 | 98
CCCn1c(=O)n(-c2ccccc2C)c(=O)c2cc(C(=O)C3=C(O)CC(C)(C)CC3=O)ccc21 [Compound 72] | 60 | 20 | 30 | 100 | 20 | 30
CCCCn1c(=O)n(-c2ccccc2C)c(=O)c2cc(C(=O)C3=C(O)CCCC3=O)ccc21 [Compound 73] | 0 | 0 | 0 | 50 | 30 | 10
CCCCn1c(=O)n(-c2ccccc2C)c(=O)c2cc(C(=O)C3=C(O)CC(C)(C)CC3=O)ccc21 [Compound 74] | 0 | 0 | 0 | 50 | 0 | 10
Cc1ccccc1-n1c(=O)c2cc(C(=O)C3=C(O)CCCC3=O)ccc2n(CC(C)C)c1=O [Compound 75] | 20 | 0 | 0 | 90 | 20 | 10
Cc1ccccc1-n1c(=O)c2cc(C(=O)C3=C(O)CC(C)(C)CC3=O)ccc2n(CC(C)C)c1=O [Compound 76] | 0 | 0 | 0 | 20 | 0 | 10
